As usually defined, the pIC50 is the IC50 on a negative log10 scale, so that one unit is a factor of ten.

pIC50: −log10 of the molar value. Where a name gives a salt, the structure may show the parent alone.

For this experiment, the system named is K562 cell line. Briefly: MTT assay: cytotoxicity against the K562 cell line. The conditions noted are these: Homo sapiens, K562 cells, 72 h, growth inhibition. The format is cell-based. How it is done: Assessment of Cell Viability via MTT Assay: Cytotoxicity of compounds against the K562 cell line was assessed using the [3-(4,5-dimethylthiazol-2-yl)-2,5-diphenyl tetrazolium bromide] (MTT) assay. Fifteen thousand tumor cells were seeded into wells of flat-bottomed 96-well plates. An amount of 2 μL of a dilution series of each compound dissolved in DMSO was added to 198 μL of appropriate growth medium at three replicates per concentration and the plates were incubated in a 5% CO2 incubator at 37° C. After 72 h, the number of metabolically active cells was determined by MTT assay. Absorbance of each well was measured at 550 nm on a Tecan Sunrise reader. Dose-response curves for growth inhibition were generated as a percentage of untreated control. IC50 was determined by nonlinear regression (Prism, Graph Pad Software, Inc.).
(Tetrazolium dyes change colour on reduction, which living cells bring about.)
Regarding `CCOc1ccc2c(Cc3cc(OC)c(OC)c(OC)c3)cncc2c1NS(=O)(=O)NC(=O)OC(C)(C)C` [Compound 7, tert-butyl N-(7-ethoxy-4-(3,4,5-trimethoxybenzyl)isoquinolin-8-yl)sulfamoylcarbamate], the negative logarithm of the IC50 (pIC50) was 6.83.

Regarding `CCOc1c(OC)cc(Cc2cncc3c(OC)c(OC)ccc23)cc1OC` [Compound 9, 4-(4-Ethoxy-3,5-dimethoxybenzyl)-7,8-dimethoxyisoquinoline hydrochloride], the pIC50 is 6.43.

For `CCOc1ccc2c(Cc3cc(OC)c(OCC)c(OC)c3)cncc2c1` [Compound 13, 7-Ethoxy-4-(4-ethoxy-3,5-dimethoxybenzyl)isoquinoline hydrochloride], the pIC50 is 6.46.

As to `CCOc1ccc2c(Cc3cc(OC)c(OC)c(OC)c3)cncc2c1` [Compound 16, 4-(3,4,5-Trimethoxybenzyl)-7-ethoxyisoquinoline hydrochloride], the negative logarithm of the IC50 (pIC50) was 6.36.

`CCOc1ccc2c(Cc3cc(OC)c(OCCOC)c(OC)c3)cncc2c1O` [Compound 22, 4-(4-(2-Methoxyethoxy)-3,5-dimethoxybenzyl)-7-ethoxyisoquinolin-8-ol hydrochloride] had a pIC50 of 6.85.

`COc1ccc2c(Cc3cc(OC)c(OC)c(OC)c3)cncc2c1` [Compound 27, 4-(3,4,5-Trimethoxybenzyl)-7-methoxyisoquinoline hydrochloride]: the pIC50 is 6.06.

As for `CCOc1ccc2c(Cc3cc(OC)c(OCC4CCC4)c(OC)c3)cncc2c1O` [Compound 34, 4-(4-(Cyclobutylmethoxy)-3,5-dimethoxybenzyl)-7-ethoxyisoquinolin-8-ol hydrochloride], the negative logarithm of the IC50 (pIC50) was 7.19.

`CCOc1ccc2c(Cc3cc(OC)c(OCC(CC)CC)c(OC)c3)cncc2c1O` [Compound 37, 7-Ethoxy-4-(4-(2-ethylbutoxy)-3,5-dimethoxybenzyl)isoquinolin-8-ol hydrochloride] had a negative-log IC50 (pIC50) of 6.05.

On to `CCOc1ccc2c(Cc3cc(OC)c(OCC(C)(C)C)c(OC)c3)cncc2c1O` [Compound 39, 4-(3,5-Dimethoxy-4-(neopentyloxy)benzyl)-7-ethoxyisoquinolin-8-ol hydrochloride], for which the pIC50 was 6.40.

For the compound `CCOc1ccc2c(C(=NO)c3cc(OC)c(OC)c(OC)c3)cncc2c1` [Compound 41, (7-ethoxyisoquinolin-4-yl)(3,4,5-trimethoxyphenyl)methanone oxime hydrochloride], the pIC50 is 6.91.

`CCOc1ccc2c(C(=S)c3cc(OC)c(OC)c(OC)c3)cncc2c1` [Compound 42, (7-Ethoxyisoquinolin-4-yl)(3,4,5-trimethoxyphenyl)methanethione hydrochloride] had a pIC50 of 7.22.

The compound `CCOc1ccc2c(Cc3cc(OC)c(OCC)c(OC)c3)cncc2c1OC` [Compound 46, 7-Ethoxy-4-(4-ethoxy-3,5-dimethoxybenzyl)-8-methoxyisoquinoline hydrochloride] had a pIC50 of 6.16.

The compound `CCOc1ccc2c(C(=O)c3cc(OC)c(OCC)c(OC)c3)cncc2c1OC` [Compound 47, (4-Ethoxy-3,5-dimethoxyphenyl)-(7-ethoxy-8-methoxyisoquinolin-4-yl)-methanone hydrochloride] had a negative logarithm of the IC50 (pIC50) of 6.89.

As for `CCOc1ccc2c(Cc3cc(OC)c(OCC(=O)OC)c(OC)c3)cncc2c1O` [Compound 48, Methyl 2-(4-((7-ethoxy-8-hydroxyisoquinolin-4-yl)methyl)-2,6-dimethoxyphenoxy)acetate hydrochloride], the pIC50 is 6.09.

`CCOc1ccc2c(Cc3cc(OC)c(OCC#N)c(OC)c3)cncc2c1O` [Compound 50, 2-(4-((7-Ethoxy-8-hydroxyisoquinolin-4-yl)methyl)-2,6-dimethoxyphenoxy)acetonitrile hydrochloride] showed a pIC50 of 7.16.

On to `CCOc1ccc2c(Cc3cc(OC)c(NCc4ccccc4)c(OC)c3)cncc2c1O` [Compound 51, 4-(4-(Benzylamino)-3,5-dimethoxybenzyl)-7-ethoxyisoquinolin-8-ol hydrochloride], for which the pIC50 is 6.13.
